The nature of one data set: Solubility (qualitative). Type of data set: physicochemical.
Data set [1] has as its system cyanobacteria Synechococcus 7002. The data set can be described thus: Liquid culture growth inhibition (optical density), salt water cyanobacteria. The data set is classed as cell-based. The settings on record: Synechococcus 7002, residual salt control; untreated control 0.72. The protocol: Strains of green algae, cyanobacteria and E. Coli were used as test organisms. The green algae CD 1 Red and cyanobacteria Synechocystos 6803 were obtained from the collection of Prof. George Bullerjahn. Salt water strain of cyanobacteria Synechococcus 7002 was obtained from the collection of Prof. Michael McKay. E Coli DH 5α was obtained from Invitrogen Inc.
Green algae and cyanobacteria were propagated photoautotrophically in 250 mL Erlenmeyer flasks containing 100 mL of liquid BG-11 culture medium (see Supporting Information). The cultures were kept on a rotating shaker (100 rpm) at 25° C. for 4 days and continuously illuminated with cool-white fluorescent light with a constant light intensity of 5000 lux. The grown culture medium was sterilized in an autoclave at 121° C. and 1.05 kg cm^−2 pressure for 20 min. For the cell experiments, 20 mL aliquots of the BG-11 medium containing the green algal ([cells]initial=5.9×10^7 mL^−1) or cyanobacteria cells ([cells]initial=1.7×10^9 mL^−1) were placed in sterile 50 mL Erlenmeyer flasks. CD 1 Red, Synechocystos 6803 and Synechococcus 7002 were then treated with an aliquot of a stock herbicide solution to bring the final herbicide concentration to 1 mM and incubated for 7 days on a rotator shaker (100 rpm) at 25° C. and continuous light intensity of 5000 lux. Cell counts were correlated with the absorbance and measured as a function of time using a Spectronic 20 Genesis spectrophotometer. As previously reported by Ma et al., 5 the optimal wavelength for monitoring culture growth is 680 nm. Experiments for each herbicide were repeated three times. Control and treated cultures were grown under the same conditions of temperature, photoperiod, and agitation. In each experiment, the inhibition of cell growth in treated cultures was monitored spectrophotometrically and compared to the growth in control samples.

Another data set concerns green algae CD 1 Red. The experiment in a line: organism not typed. The data set is classed as cell-based. The settings on record: 120 h; CD1 Red, herbicide concentration 300 mM, 5 days; read-out: Average radii of the inhibition zones. The protocol: After phototrophical propagation during the 5 days under cool fluorescence light (intensity 5000 lux), the average radii of inhibition zones were measured. Water soaked filter paper circles were used as controls. Experiments for each herbicide concentration were repeated 3 times.

Consider three compounds from patent publication US20080317700A1 (priority 2006, published 2008).

Consider `C=C(C)C(=O)N(CC(=O)O)CP(=O)(O)O` [MA, N-Methacryloyl-N-(phosphonomethyl)glycine], for which, in the data set “Solubility (qualitative)”, the “Solubility in organic solvents” value is “poorly soluble in most organic solvents” and the Solubility in water entry was “soluble in water”.
With `[Cl-].[Na+]` [NaCl, sodium chloride], in data set [1], the “Optical Density at 680 nm after 7 days of media growth, NaCl control experiment” value was “(0.75 NaCl)”.
For `C=CC(N)=O` [acrylamide], the zone of inhibition at 300000 µM in the data set on green algae CD 1 Red amounted to 7.5 mm.
